From patent US9434734B2, “Substituted pyrazoloquinazolinones and pyrroloquinazolinones as allosteric modulators of group II metabotropic glutamate receptors” (Domain Therapeutics, priority 2012, dated 2016) come the findings set out here.

Read-outs that look alike come from different tables or passages of the source.

Data set [1] deals with T1, human mGluR2 (hmGluR2) transiently over-expressed in HEK-293 cells (Homo sapiens, UniProt Q14416).
T1 construct: expressed in transfected cells; host or cells: HEK-293 cells, transient co-transfection by electroporation
Description: Human mGluR2 negative allosteric modulator evaluation using Ca++ functional assay (agonist and NAM activity). It counts as cell-based. How it is done: Human mGluR2 Negative Allosteric Modulator Evaluation Using Ca^++ Functional Assay
Compounds of the present invention were tested successively for their agonist and negative allosteric modulator activities on human mGluR2 (hmGluR2) transiently over-expressed in HEK-293 cells. They exert agonist activity if they are able to activate mGluR2 by themselves, i.e., in absence of the endogenous agonist glutamate; and they exert negative allosteric modulator activity if they decrease the action of the endogenous agonist glutamate.
HEK-293 cells were maintained in Modified Eagle's Medium supplemented with 10% Foetal Calf Serum, 1% Penicillin/Streptomycin and 1% nonessential amino acids at 37° C./5% CO2.
Cells were plated after transfection onto polyornithine coated, clear bottom, black-walled, 96-well plates and cultured for 24 h.
Receptor activity was detected by changes in intracellular calcium measured using the fluorescent Ca^2+ sensitive dye, Fluo4AM (Molecular Probes).
The day of the assay, medium was aspirated and replaced during 3 hours by medium without serum supplemented with 1% Glutamax, 1% Penicillin/Streptomycin and 1% nonessential amino acids. Then, cells were washed with freshly prepared buffer B (HBSS 1× (PAA), Hepes 20 mM, MgSO4-7H2O 1 mM, Na2CO3 3.3 mM, CaCl2-2H2O 1.3 mM, 0.5% BSA, Probenecid 2.5 mM) and loaded at 37° C./5% CO2 for 1.5 hours with buffer B containing 1 μM Fluo4AM, 0.1 mg/mL Pluronic Acid, 7 μg/mL Glutamate Pyruvate Transaminase and 2 mM sodium pyruvate. Afterwards cells were washed twice with buffer B and 50 μL of this buffer were added to each well.
Agonist and negative allosteric modulator activities of compounds were consecutively evaluated on the same cells plate. […] Then, the cells were stimulated by an EC80 glutamate concentration and fluorescence was recorded for additional 60 s. EC80 glutamate concentration is the concentration giving 80% of the maximal glutamate response. Agonist and/or negative allosteric modulator activity(ies) were evaluated in comparison to basal signal or signal evoked by EC80 glutamate alone, respectively.
For potency determination, a dose-response test was performed using 8 concentrations of each compound of the invention. Dose-response curves were fitted using the sigmoidal dose-response (variable slope) analysis in GraphPad Prism program (Graph Pad Inc) and EC50 of agonist/IC50 of negative allosteric modulator activity was calculated. Dose-response experiments were all performed in duplicate, two times independently.

Where [2] appears, read: hmGluR2 in HEK-293 cells, EC80 glutamate, Fluo4AM calcium readout, read-out: mGluR2 negative allosteric modulator activity IC50.

T1 sequence (Q14416 19-872): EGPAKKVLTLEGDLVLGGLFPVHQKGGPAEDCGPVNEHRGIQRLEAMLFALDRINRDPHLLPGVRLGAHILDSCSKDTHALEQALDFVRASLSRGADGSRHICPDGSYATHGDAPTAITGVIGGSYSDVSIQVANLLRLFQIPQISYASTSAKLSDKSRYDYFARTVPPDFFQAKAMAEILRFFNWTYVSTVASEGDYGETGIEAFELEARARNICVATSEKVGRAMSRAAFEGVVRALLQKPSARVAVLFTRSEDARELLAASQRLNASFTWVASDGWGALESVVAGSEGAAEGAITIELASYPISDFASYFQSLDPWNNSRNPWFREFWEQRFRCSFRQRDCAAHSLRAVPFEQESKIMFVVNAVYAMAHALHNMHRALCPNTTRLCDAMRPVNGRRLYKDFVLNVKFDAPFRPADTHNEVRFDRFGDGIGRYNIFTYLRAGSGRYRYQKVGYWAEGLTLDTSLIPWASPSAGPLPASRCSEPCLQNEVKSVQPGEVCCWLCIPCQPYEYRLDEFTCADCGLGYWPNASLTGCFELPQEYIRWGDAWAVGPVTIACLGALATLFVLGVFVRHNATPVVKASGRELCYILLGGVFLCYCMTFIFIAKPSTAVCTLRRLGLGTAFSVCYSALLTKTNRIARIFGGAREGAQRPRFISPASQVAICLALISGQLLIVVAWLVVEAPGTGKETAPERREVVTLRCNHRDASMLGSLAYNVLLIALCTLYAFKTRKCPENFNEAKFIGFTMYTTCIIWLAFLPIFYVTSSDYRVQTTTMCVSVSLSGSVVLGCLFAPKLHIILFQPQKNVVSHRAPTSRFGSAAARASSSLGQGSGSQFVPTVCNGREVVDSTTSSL

In turn, `CN(C)S(=O)(=O)c1cccc(-c2ccc3c(=O)n(C)c4cc(-c5ccccc5)nn4c3c2)c1` [Example 38, N,N-Dimethyl-3-(4-methyl-5-oxo-2-phenyl-4,5-dihydro-pyrazolo[1,5-a]quinazolin-8-yl)-benzenesulfonamide] yielded a melting point of 202 to 204 °C. Further, the IC50 in data set [1] (N-methylated compounds, statement in description, read-out: IC50 for mGluR2) was under 30 nM. Also, the IC50 in data set [1] (setting [2]) was under 1000 nM.

Turning to `CCn1c(=O)c2ccc(-c3cccc(S(=O)(=O)N(C)C)c3)cc2n2nc(-c3ccccc3)cc12` [Example 39, N,N-Dimethyl-3-(4-Ethyl-5-oxo-2-phenyl-4,5-dihydro-pyrazolo[1,5-a]quinazolin-8-yl)-benzenesulfonamide], the melting point lay within 197 to 198 °C. The IC50 in data set [1] (setting [2]) was under 1000 nM.

The compound `CCCn1c(=O)c2ccc(-c3cccc(S(=O)(=O)N(C)C)c3)cc2n2nc(-c3ccccc3)cc12` [Example 40, N,N-Dimethyl-3-(4-propyl-5-oxo-2-phenyl-4,5-dihydro-pyrazolo[1,5-a]quinazolin-8-yl)-benzenesulfonamide] yielded a melting point of 112 to 116 °C. Further, in data set [1] (setting [2]), the 50% inhibitory concentration (IC50) was under 1000 nM.

As for `CN(C)S(=O)(=O)c1cccc(-c2ccc3c(=O)n(CC4CC4)c4cc(-c5ccccc5)nn4c3c2)c1` [Example 42, 3-(4-Cyclopropylmethyl-5-oxo-2-phenyl-4,5-dihydro-pyrazolo[1,5-a]quinazolin-8-yl)-N,N-dimethyl-benzenesulfonamide], the melting point fell in the range of 115 to 119 °C. For the same compound, the IC50 in data set [1] (setting [2]) was under 1000 nM.

The compound `CCn1c(=O)c2ccc(-c3ccc(N)nc3)cc2n2nc(-c3ccccc3)cc12.Cl` [Example 43, 8-(6-Amino-pyridin-3-yl)-4-ethyl-2-phenyl-4H-pyrazolo[1,5-a]quinazolin-5-one] showed a melting point of 207 to 208 °C. The 50% inhibitory concentration (IC50) in data set [1] (setting [2]) is under 1000 nM.

For `CCCn1c(=O)c2ccc(-c3ccc(N)nc3)cc2n2nc(-c3ccccc3)cc12.Cl` [Example 44, 8-(6-Amino-pyridin-3-yl)-2-phenyl-4-propyl-4H-pyrazolo[1,5-a]quinazolin-5-one], the melting point is over 250 °C. In data set [1] (setting [2]), the IC50 is under 1000 nM.

In the case of `Cl.Nc1ccc(-c2ccc3c(=O)n(CC(F)(F)F)c4cc(-c5ccccc5)nn4c3c2)cn1` [Example 45, 8-(6-Amino-pyridin-3-yl)-2-phenyl-4-(2,2,2-trifluoro-ethyl)-4H-pyrazolo[1,5-a]quinazolin-5-one], the melting point was in the range of 227 to 230 °C. Moreover, the 50% inhibitory concentration (IC50) in data set [1] (setting [2]) was under 1000 nM.

`Cl.Nc1ccc(-c2ccc3c(=O)n(CC(F)F)c4cc(-c5ccccc5)nn4c3c2)cn1` [Example 46, 8-(6-Amino-pyridin-3-yl)-4-(2,2-difluoro-ethyl)-2-phenyl-4H-pyrazolo[1,5-a]quinazolin-5-one]: the melting point was over 250 °C. In data set [1] (setting [2]), the IC50 was under 1000 nM.

As for `CC(C)n1c(=O)c2ccc(-c3ccc(N)nc3)cc2n2nc(-c3ccccc3)cc12.Cl` [Example 47, 8-(6-Amino-pyridin-3-yl)-4-isopropyl-2-phenyl-4H-pyrazolo[1,5-a]quinazolin-5-one], the melting point lay within 214 to 216 °C. The IC50 in data set [1] (setting [2]) was under 1000 nM.

The compound `Cl.Nc1ccc(-c2ccc3c(=O)n(C4CCC4)c4cc(-c5ccccc5)nn4c3c2)cn1` [Example 48, 8-(6-Amino-pyridin-3-yl)-4-cyclobutyl-2-phenyl-4H-pyrazolo[1,5-a]quinazolin-5-one] returned a melting point of 203 to 205 °C. Further, the IC50 in data set [1] (setting [2]) is under 1000 nM.

Compound `CCc1cc2n(C)c(=O)c3ccc(-c4ccc(N)nc4)cc3n2n1.Cl` [Example 49, 8-(6-Amino-pyridin-3-yl)-2-ethyl-4-methyl-4H-pyrazolo[1,5-a]quinazolin-5-one] yielded a melting point of over 250 °C. The IC50 in data set [1] (setting [2]) was under 1000 nM.

`CCCc1cc2n(C)c(=O)c3ccc(-c4ccc(N)nc4)cc3n2n1.Cl` [Example 50, 8-(6-Amino-pyridin-3-yl)-4-methyl-2-propyl-4H-pyrazolo[1,5-a]quinazolin-5-one] gave a melting point of over 250 °C. Besides, the half-maximal inhibitory concentration (IC50) in data set [1] (setting [2]) was under 1000 nM.

Take `CC(C)c1cc2n(C)c(=O)c3ccc(-c4ccc(N)nc4)cc3n2n1.Cl` [Example 51, 8-(6-Amino-pyridin-3-yl)-2-isopropyl-4-methyl-4H-pyrazolo[1,5-a]quinazolin-5-one]: the melting point lay in the range of 240 to 244 °C. Moreover, the 50% inhibitory concentration (IC50) in data set [1] (setting [2]) is under 1000 nM.

`COCCc1cc2n(C)c(=O)c3ccc(-c4ccc(N)nc4)cc3n2n1.Cl` [Example 53, 8-(6-Amino-pyridin-3-yl)-2-(2-methoxy-ethyl)-4-methyl-4H-pyrazolo[1,5-a]quinazolin-5-one] gave a melting point of 198 to 202 °C. Moreover, in data set [1] (setting [2]), the half-inhibitory concentration (IC50) was under 1000 nM.

For the compound `Cl.Cn1c(=O)c2ccc(-c3ccc(N)nc3)cc2n2nc(C3CC3)cc12` [Example 63, 8-(6-Amino-pyridin-3-yl)-2-cyclopropyl-4-methyl-4H-pyrazolo[1,5-a]quinazolin-5-one], the melting point was over 250 °C. In data set [1] (setting [2]), the half-maximal inhibitory concentration (IC50) is under 1000 nM.

`Cl.Cn1c(=O)c2ccc(-c3ccc(N)nc3)cc2n2nc(C3CCC3)cc12` [Example 64, 8-(6-Amino-pyridin-3-yl)-2-cyclobutyl-4-methyl-4H-pyrazolo[1,5-a]quinazolin-5-one] came in with a melting point of over 250 °C. Further, the 50% inhibitory concentration (IC50) in data set [1] (setting [2]) was under 1000 nM.

`Cl.Cn1c(=O)c2ccc(-c3ccc(N)nc3)cc2n2nc(C3CCCC3)cc12` [Example 65, 8-(6-Amino-pyridin-3-yl)-2-cyclopentyl-4-methyl-4H-pyrazolo[1,5-a]quinazolin-5-one]: the melting point is over 250 °C. The concentration for half-maximal inhibition (IC50) in data set [1] (setting [2]) was under 1000 nM.

`Cc1cc(-c2ccc3c(=O)n(C)c4cc(C5CCCC5)nn4c3c2)cc(C)n1.Cl` [Example 66, 2-Cyclopentyl-8-(2,6-dimethyl-pyridin-4-yl)-4-methyl-4H-pyrazolo[1,5-a]quinazolin-5-one] displayed a melting point of over 250 °C. The IC50 in data set [1] (setting [2]) is under 1000 nM.

As for `CCn1c(=O)c2ccc(-c3cc(C)nc(C)c3)cc2n2nc(C3CCCC3)cc12.Cl` [Example 70, 2-Cyclopentyl-8-(2,6-dimethyl-pyridin-4-yl)-4-ethyl-4H-pyrazolo[1,5-a]quinazolin-5-one], the melting point is over 250 °C. The IC50 in data set [1] (setting [2]) is under 1000 nM.

Compound `CCCn1c(=O)c2ccc(-c3ccc(N)nc3)cc2n2nc(C3CCCC3)cc12.Cl` [Example 71, 8-(6-Amino-pyridin-3-yl)-2-cyclopentyl-4-propyl-4H-pyrazolo[1,5-a]quinazolin-5-one] gave a melting point of over 250 °C. In addition, the half-maximal inhibitory concentration (IC50) in data set [1] (setting [2]) was under 1000 nM.

`Cl.Cn1c(=O)c2ccc(-c3ccc(N)nc3)cc2n2nc(C3CCCCC3)cc12` [Example 74, 8-(6-Amino-pyridin-3-yl)-2-cyclohexyl-4-methyl-4H-pyrazolo[1,5-a]quinazolin-5-one] gave a melting point of 194 to 197 °C. In addition, the concentration for half-maximal inhibition (IC50) in data set [1] (setting [2]) is under 1000 nM.

For `Cc1n[nH]cc1-c1ccc2c(=O)n(C)c3cc(C4CCCCC4)nn3c2c1` [Example 75, 2-Cyclohexyl-4-methyl-8-(3-methyl-1H-pyrazol-4-yl)-4H-pyrazolo[1,5-a]quinazolin-5-one], the melting point is over 250 °C. Besides, the concentration for half-maximal inhibition (IC50) in data set [1] (setting [2]) is under 1000 nM.

`Cc1cc(-c2ccc3c(=O)n(C)c4cc(C5CCCCCC5)nn4c3c2)cc(C)n1.Cl` [Example 77, 2-Cycloheptyl-8-(2,6-dimethyl-pyridin-4-yl)-4-methyl-4H-pyrazolo[1,5-a]quinazolin-5-one] returned a melting point of over 250 °C. In data set [1] (setting [2]), the 50% inhibitory concentration (IC50) is under 1000 nM.

Consider `Cl.Cn1c(=O)c2ccc(-c3ccc(N)nc3)cc2n2nc(Cc3ccccc3)cc12` [Example 79, 8-(6-Amino-pyridin-3-yl)-2-benzyl-4-methyl-4H-pyrazolo[1,5-a]quinazolin-5-one], for which the melting point was over 250 °C. Further, in data set [1] (setting [2]), the IC50 is under 1000 nM.

In turn, `Cl.Cn1c(=O)c2ccc(-c3ccc(N)nc3)cc2n2nc(-c3ccc(F)cc3)cc12` [Example 80, 8-(6-Amino-pyridin-3-yl)-2-(4-fluoro-phenyl)-4-methyl-4H-pyrazolo[1,5-a]quinazolin-5-one] registered a melting point of over 250 °C. Besides, the concentration for half-maximal inhibition (IC50) in data set [1] (setting [2]) is under 1000 nM.

Turning to `Cc1n[nH]cc1-c1ccc2c(=O)n(C)c3cc(-c4ccc(F)cc4)nn3c2c1` [Example 81, 2-(4-Fluoro-phenyl)-4-methyl-8-(3-methyl-1H-pyrazol-4-yl)-4H-pyrazolo[1,5-a]quinazolin-5-one], the melting point was over 250 °C. The 50% inhibitory concentration (IC50) in data set [1] (setting [2]) is under 1000 nM.

A word on the IC50: it is the point on the concentration scale where inhibition reaches its midpoint. As usually defined, the melting point is the temperature, or range, at which the solid turns liquid.
